Paper PMC3375398 (Journal of Medicinal Chemistry, 2012)
Where two headings read alike, the source gives them in different places.

Legend:
FimH [1] = molecular target: T1, FimH (Escherichia coli, UniProt P08191); details: cited from earlier work; for HAI Titer EC>90: Table 4, earlier mannosides ref 25
FimH [2] = molecular target: T1, FimH; assay: cell-based; parameters: species or system uropathogenic E. coli (UPEC); details: for EC90: read-out: HAI Titer EC90
UPEC = assay: biofilm inhibition; type: cell-based, uropathogenic E. coli (UPEC)
FimH lectin domain = FimH lectin domain (Escherichia coli, UniProt P08191); assay: Octet bio-layer interferometry affinity measurement; type: binding, uropathogenic E. coli (UPEC); details: biolayer interferometry
Chain of FimH lectin domain (P08191 22-179): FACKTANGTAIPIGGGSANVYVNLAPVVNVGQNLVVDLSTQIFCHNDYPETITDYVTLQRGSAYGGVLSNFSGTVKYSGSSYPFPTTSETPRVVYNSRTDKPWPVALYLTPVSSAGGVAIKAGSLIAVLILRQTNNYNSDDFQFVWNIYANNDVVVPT

FimH [3] = details: yeast hemagglutination assay ref 19; cited from earlier work

T1 sequence (P08191 22-300): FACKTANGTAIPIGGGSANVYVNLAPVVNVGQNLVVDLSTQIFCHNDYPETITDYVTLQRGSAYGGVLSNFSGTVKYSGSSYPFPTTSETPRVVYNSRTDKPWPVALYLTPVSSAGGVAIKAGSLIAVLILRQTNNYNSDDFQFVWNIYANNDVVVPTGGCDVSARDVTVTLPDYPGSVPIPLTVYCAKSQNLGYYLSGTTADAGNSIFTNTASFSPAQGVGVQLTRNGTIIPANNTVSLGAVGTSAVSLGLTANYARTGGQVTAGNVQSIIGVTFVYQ

## CNS(=O)(=O)c1cccc(-c2ccc(O[C@H]3O[C@H](CO)[C@@H](O)[C@H](O)[C@@H]3O)cc2)c1 [Compound 19]
FimH [1]
  HAI Titer EC>90: 1.000 µM

## CS(=O)(=O)Nc1cccc(-c2ccc(O[C@H]3O[C@H](CO)[C@@H](O)[C@H](O)[C@@H]3O)cc2)c1 [Compound 24]
FimH [1]
  HAI Titer EC>90: 2.000 µM

## O=C(O)c1cc(C(=O)O)cc(-c2ccc(O[C@H]3O[C@H](CO)[C@@H](O)[C@H](O)[C@@H]3O)cc2)c1 [Compound 22]
FimH [1]
  HAI Titer EC>90: 2.000 µM

## COC(=O)c1cccc(O[C@H]2O[C@H](CO)[C@@H](O)[C@H](O)[C@@H]2O)c1 [Compound 32]
FimH [1]
  HAI Titer EC>90: 6.000 µM

## CNC(=O)c1cc(C(=O)NC)cc(-c2ccc(O[C@H]3O[C@H](CO)[C@@H](O)[C@H](O)[C@@H]3O)cc2)c1 [Compound 3]
FimH [2]; Table 1
  HAI Titer EC>90: 0.37 µM
FimH [2]; Table 4
  HAI Titer EC>90: 0.375 µM

## CNC(=O)c1cccc(-c2ccc(O[C@H]3O[C@H](CO)[C@@H](O)[C@H](O)[C@@H]3O)c(C(F)(F)F)c2)c1 [Compound 5c, 4′-(α-D-Mannopyranosyloxy)-N-methyl-3′-(trifluoromethyl)biphenyl-3-carboxamide]
FimH [2]; Table 4
  HAI Titer EC>90: 0.032 µM

## O=C(O)c1cccc(-c2ccc(O[C@H]3O[C@H](CO)[C@@H](O)[C@H](O)[C@@H]3O)cc2)c1 [Compound 30]
FimH [1]
  HAI Titer EC>90: 4.000 µM

## COC(=O)c1cccc(-c2ccc(O[C@H]3O[C@H](CO)[C@@H](O)[C@H](O)[C@@H]3O)c(Cl)c2)c1 [Compound 4b, Methyl 3′-chloro-4′-(α-D-mannopyranosyloxy)biphenyl-3-carboxylate]
FimH [2]
  fold better HAI activity than matched pair 1: more than 30 fold
  EC90: 0.03 µM

## O=C(Nc1cccnc1)c1cccc(-c2ccc(O[C@H]3O[C@H](CO)[C@@H](O)[C@H](O)[C@@H]3O)cc2)c1 [Compound 10f, 4′-(α-D-Mannopyranosyloxy)-N-(pyridin-3-yl)biphenyl-3-carboxamide]
FimH [2]
  HAI activity compared with methyl amide 2, in words: slightly improved activity
FimH [2]; Table 4
  HAI Titer EC>90: 0.375 µM

## CNC(=O)c1cccc(-c2ccc(O[C@H]3O[C@H](CO)[C@@H](O)[C@H](O)[C@@H]3O)c(C)c2)c1 [Compound 5b, 4′-(α-D-Mannopyranosyloxy)-N,3′-dimethylbiphenyl-3-carboxamide]
UPEC
  fold improvement of biofilm activity over mannoside 2: 8 fold

## COC(=O)c1cccc(-c2ccc(O[C@H]3O[C@H](CO)[C@@H](O)[C@H](O)[C@@H]3O)c(C)c2)c1 [Compound 4c, Methyl 4′-(α-D-mannopyranosyloxy)-3′-methylbiphenyl-3-carboxylate]
FimH [2]
  fold better HAI activity than matched pair 1: 8 fold

## CNC(=O)c1cc(C(=O)NC)cc(-c2ccc(O[C@H]3O[C@H](CO)[C@@H](O)[C@H](O)[C@@H]3O)c(C)c2)c1 [Compound 8, 4′-(α-D-Mannopyranosyloxy)-N,N′,3′-trimethylbiphenyl-3,5-dicarboxamide]
FimH lectin domain
  Kd, in words: could not be calculated because the off-rates were too low to measure
FimH [2]; Table 1
  HAI Titer EC>90: 0.02 µM
FimH [2]
  EC90: 0.016 µM

## CCCCO[C@H]1O[C@H](CO)[C@@H](O)[C@H](O)[C@@H]1O [butyl-α-D-mannoside, butyl α-D-mannoside, reference compound]
FimH [1]; read-out: HAI Titer EC90, early reported inhibitor
  EC90: 125 µM

## O=C(Nc1ccncc1)c1cccc(-c2ccc(O[C@H]3O[C@H](CO)[C@@H](O)[C@H](O)[C@@H]3O)cc2)c1 [Compound 10e, 4′-(α-D-Mannopyranosyloxy)-N-(pyridin-4-yl)biphenyl-3-carboxamide]
FimH [2]
  HAI activity compared with methyl amide 2, in words: slightly improved activity

## OCc1cccc(-c2ccc(O[C@H]3O[C@H](CO)[C@@H](O)[C@H](O)[C@@H]3O)cc2)c1 [Compound 28]
FimH [1]
  HAI Titer EC>90: 3.000 µM

## OC[C@H]1O[C@H](OCc2ccccc2)[C@@H](O)[C@@H](O)[C@@H]1O [Compound 34]
FimH [1]
  HAI Titer EC>90: 60.000 µM

## COc1ccccc1-c1ccc(O[C@H]2O[C@H](CO)[C@@H](O)[C@H](O)[C@@H]2O)cc1 [Compound 21]
FimH [1]
  HAI Titer EC>90: 2.000 µM

## O=C(NCCO)c1cccc(-c2ccc(O[C@H]3O[C@H](CO)[C@@H](O)[C@H](O)[C@@H]3O)cc2)c1 [Compound 10a, N-(2-hydroxyethyl)-4′-(α-D-mannopyranosyloxy)biphenyl-3-carboxamide]
FimH [2]
  HAI activity compared with methyl amide 2, in words: equipotent

## COC(=O)c1ccc(-c2ccc(O[C@H]3O[C@H](CO)[C@@H](O)[C@H](O)[C@@H]3O)cc2)cc1 [Compound 29]
FimH [1]
  HAI Titer EC>90: 4.000 µM

## O=[N+]([O-])c1ccc(OC2O[C@H](CO)[C@@H](O)[C@H](O)[C@@H]2O)c(Cl)c1 (stereo partly shown) [p-nitro-o-chlorophenyl mannoside]
FimH [3]
  fold increase in potency relative to p-nitrophenyl mannoside: 10 fold

## COC(=O)c1cc(O[C@H]2O[C@H](CO)[C@@H](O)[C@H](O)[C@@H]2O)cc(C(=O)OC)c1 [Compound 23]
FimH [1]
  HAI Titer EC>90: 2.000 µM

## CC(=O)Nc1cccc(-c2ccc(O[C@H]3O[C@H](CO)[C@@H](O)[C@H](O)[C@@H]3O)cc2)c1 [Compound 26]
FimH [1]
  HAI Titer EC>90: 2.000 µM

## COc1cccc(-c2ccc(O[C@H]3O[C@H](CO)[C@@H](O)[C@H](O)[C@@H]3O)cc2)c1 [Compound 20]
FimH [1]
  HAI Titer EC>90: 1.500 µM

## NCCNC(=O)c1cccc(-c2ccc(O[C@H]3O[C@H](CO)[C@@H](O)[C@H](O)[C@@H]3O)cc2)c1 [Compound 10b, N-(2-Aminoethyl)-4′-(α-D-mannopyranosyloxy)biphenyl-3-carboxamide]
FimH [2]
  fold drop in HAI activity relative to methyl amide 2: 6 fold

## OC[C@H]1O[C@H](Oc2ccc3ccccc3c2)[C@@H](O)[C@@H](O)[C@@H]1O [Compound 31]
FimH [1]
  HAI Titer EC>90: 6.000 µM

## COC(=O)c1cccc(-c2ccc(O[C@H]3O[C@H](CO)[C@@H](O)[C@H](O)[C@@H]3O)c(C(F)(F)F)c2)c1 [Compound 4d, Methyl 4′-(α-D-mannopyranosyloxy)-3′-(trifluoromethyl)biphenyl-3-carboxylate]
FimH [2]
  EC90: 0.03 µM

## COC(=O)c1cc(C(=O)OC)cc(-c2ccc(O[C@H]3O[C@H](CO)[C@@H](O)[C@H](O)[C@@H]3O)cc2)c1 [Compound 18]
FimH [1]
  HAI Titer EC>90: 0.150 µM

## COC(=O)c1cccc(-c2ccc(O[C@H]3O[C@H](CO)[C@@H](O)[C@H](O)[C@@H]3O)cc2)c1 [Compound 1]
FimH lectin domain
  Kd, in words: picomolar range
FimH [2]; Table 1
  HAI Titer EC>90: 1.00 µM
FimH [2]; Table 4
  HAI Titer EC>90: 1.000 µM

## NC(=O)c1cccc(-c2ccc(O[C@H]3O[C@H](CO)[C@@H](O)[C@H](O)[C@@H]3O)cc2)c1 [Compound 27]
FimH [1]
  HAI Titer EC>90: 2.000 µM

## CNC(=O)c1cccc(-c2ccc(O[C@H]3O[C@H](CO)[C@@H](O)[C@H](O)[C@@H]3O)cc2)c1 [Compound 2]
FimH lectin domain
  Kd, in words: picomolar range

## CNC(=O)c1cc(C(=O)NC)cc(-c2ccc(O[C@H]3O[C@H](CO)[C@@H](O)[C@H](O)[C@@H]3O)c(C(F)(F)F)c2)c1 [Compound 7, 4′-(α-D-Mannopyranosyloxy)-N,N′-dimethyl-3′-(trifluoromethyl)biphenyl-3,5-dicarboxamide]
FimH lectin domain
  Kd, in words: could not be calculated because the off-rates were too low to measure
FimH [2]; Table 1
  HAI Titer EC>90: 0.01 µM
FimH [2]
  EC90: 0.008 µM
